Data taken from US9962326B2, “Compositions comprising paulownia tomentosa wood extracts and uses thereof” (JOHNSON & JOHNSON CONSUMER INC., priority 2010, dated 2018).

System: UV-induced ROS, primary human keratinocytes
Assay: Inhibition of Reactive Oxygen Species Formation in primary human keratinocytes
Type: cell-based
Conditions: for Reactive Oxygen Species Produced (MFU): 60 minutes post UV
Method: The anti-oxidant activity of Paulownin was established via the Inhibition of Reactive Oxygen Species Formation assay described above. In this study primary human keratinocytes were substituted for human epithelial (KB) cells. The keratinocytes were plated in 96-well tissue culture treated plates at a density of 5000 cells/well in Dulbecco's modified Eagle's medium (DMEM) supplemented with 10% fetal bovine serum (Invitrogen Corp., San Diego, Calif.). After 48 hours, cells were incubated for 30 minutes with 5 μM of the hydrogen peroxide-sensitive fluorescent probe 5-(and-6)-chloromethyl-2′,7′-dichlorodihydro-fluorescein diacetate, acetyl ester (CM-H2DCFDA) (Invitrogen Corp., Carlsbad, Calif.). After incubation, the plate was rinsed to remove excess probe and Paulownin was added at the indicated concentrations. The plate was immediately read on a fluorescent plate reader set at wavelengths 485 nm excitation/530 nm emission to detect basal peroxide formation. The plate was then exposed to UV (1000W-Oriel solar simulator equipped with a 1 mm Schott WG 320 filter; UV dose applied 4.2 kJ/m^2 as measured at 360 nm). The plate was read 60 minutes post UV exposure and the data reported as mean fluorescent units (MFU).

OC12COC(c3ccc4c(c3)OCO4)C1COC2c1ccc2c(c1)OCO2 (stereo not shown) [Paulownin]
UV-induced production of ROS (in words): significantly reduce | Percent Inhibition of UV Induced ROS Formation (UV + 50 ug/ml): 65.3% | Reactive Oxygen Species Produced (MFU) (UV + 50 ug/ml): 46.3 ± 6.9 MFU | Percent Inhibition of UV Induced ROS Formation (UV + 100 ug/ml): 69.5% | Reactive Oxygen Species Produced (MFU) (UV + 100 ug/ml): 40.5 ± 6.1 MFU | Percent Inhibition of UV Induced ROS Formation (UV + 200 ug/ml): 72.1% | Reactive Oxygen Species Produced (MFU) (UV + 200 ug/ml): 37.2 ± 3.4 MFU
